Read-outs that look alike come from different tables or passages of the source.
How the values were obtained:
[1] = Protocol: Each polymer (5 mg) was added into a pH buffer (1 mL) and the mixture was sonificated for 2 minutes. Then the mixture was allowed to settle at room temperature for 30 minutes. Solubility was observed by eye and recorded on the scale of 1 to 10, where 1 is highly insoluble, 5 is a cloudy suspension, and 10 is a highly clear solution.
[2] = test system: murine melanoma cells (B16F0) tumor; experiment: In vivo tumor tissue uptake, syngeneic tumor model, cryostat sections; settings: 24 hours after intravenous administration, nu/nu mice
Protocol: Animals: Nu/nu mice, female, 6-8 weeks (22-25 g). Solitary tumors were produced by injecting 2×10^5 murine melanoma cells (B16F0) to the right thigh subcutaneously. 5-7 days later when the tumor reached about 500 mm^3, the PGA-97-A-Texas Red or Texas Red dye was injected intravenously to the tumor.
PGA-97-A-Texas Red and Texas Red were separately dissolved in DPBS and were filtrated through a 0.2 μm filter before being administrated to the animals. 100 μl of PGA-97-A-Texas Red (TR loading at 2.5%) or Texas Red at 0.1-10 mM was intravenously injected to the tumor using the syngeneic tumor model in Example 19. Tumors were dissected, embedded under optimal cutting temperature and frozen in liquid nitrogen. Cryostat sections (6-15 μm) were made and were fixed with 4% paraformaldehyde with 0.03M of sucrose on ice for 10-30 min. The sections were washed 2 times with DPBS, stained with Hoechst 33342 (1 μg/ml) for 10 minutes, and washed again with DPBS. The sections were then mounted with a fluorescent mounting medium (DakoCytomation) and covered with a coverslip. The cryostat sections of the tumor were observed under laser scan confocal microscopy.
Photographs of the cryostat cross-section of in vivo tumor tissue uptake of PGA-97-A-Texas Red and Texas Red dye alone were taken. For each, three different cross-sections were taken for a total of six images. […]

[3] = test system: B16F0 melanoma cells; experiment: In vitro cellular uptake, fluorescence microscopy; assay type: cell-based, murine
Protocol: B16F0 cells were purchased from ATCC (CRL-6322, ATCC American Type Culture Collection, Rockville, Md.) and were grown in Dulbecco's modified Eagle's medium (DMEM) with 10% fetal bovine serum and 100 units/mL penicillin. The cells were grown at 37° C. in 5% CO2 environment. The culture medium was removed and discarded. The cells were rinsed with Dulbecco Phosphate Buffer Solution (DPBS), Trypsin-ethylenediaminetetra-acetic acid (EDTA) solution (0.5 ml) was added, and the cells were observed under an inverted microscope to make sure that they were dispersed. Complete growth medium (6.0 to 8.0 ml) was added, and the cells were aspirated by gently pipetting. The cell suspension in appropriate aliquots was transferred to new culture plates. […]
PGA-97-A-Texas Red and Texas Red dye (TR) were separately dissolved in DPBS. […] The treated cells were examined under an OLYMPUS fluorescence microscope, and the excitation and emission wavelengths were measured at 591 and 612 nm, respectively.
Three sample containers containing approximately the same number of B16F0 melanoma cells were incubated with PGA-97-A-Texas Red at 1 μM, PGA-97-A-Texas Red at 0.1 μM, and Texas Red alone at 10 μM, respectively, for 24 hours. Photographs of the in vitro cellular uptake of each container were taken with the camera on an Olympus fluorescence microscope system. […]

| Solubility ([1]; pH 2) | Solubility ([1]; pH 3) | Solubility ([1]; pH 4) | Solubility ([1]; pH 5) | Solubility ([1]; pH 6) | Solubility ([1]; pH 7) | Solubility ([1]; pH 7.4) | Substance | accumulation of Texas red dye in tumor cells in vivo [2] | cellular uptake of Texas red dye ([3]; 0.1 μM to 10 μM, 8-24 hours, fluorescence microscope) | cells that were red (cellular uptake of dye) ([3]; 10 μM, 24 hours, B16F0 melanoma cells) |
| --- | --- | --- | --- | --- | --- | --- | --- | --- | --- | --- |
| 10 | 10 | 10 | 10 | 10 | 10 | 10 | Poly-(γ-glutamyl)-poly-L-glutamine [PGPG-19,800] |  |  |  |
|  |  |  |  |  |  |  | Texas Red | not | not | 0% |

Source: US9855338B2, “Polyglutamate-amino acid conjugates and methods” (priority 2005, dated 2018)
